The text below walks through data of article PMC2788672 (Journal of medicinal chemistry, 2009).

The structures appear in SMILES notation. Converted amounts (≈) assume the structure as drawn. “Also recorded” adds a separate entry of the source. Where two headings read alike, the source gives them in different places.

Data set [1] relates to P. carinii. The experiment in a line: In vitro anti-P. carinii ATP detection assay. Type of data set: cell-based, Pneumocystis carinii. Particulars: for IC50: Pneumocystis carinii.
The subject of data set [2] is sporogonic development of Plasmodium berghei ANKA in Anopheles stephensi. Kind of data set: In vivo transmission-blocking activity. Particulars: single i.p. dose to mice.
In data set [3] the test system is chloroquine-resistant P. falciparum strain W2. As to conditions: cited from earlier work; for IC50: read-out: Activity against blood stage forms IC50, ref [28].
The subject of data set [4] is P. carinii. As to conditions: 72 h, ref [28], cited from earlier work; for IC50: read-out: Anti-P. carinii activity IC50.
Data set [5] concerns A549 human adenocarcinoma epithelial lung cells. The experiment in a line: Cytotoxicity, viability of A549 cells. Type of data set: cell-based.
For data set [6], the system named is chloroquine-resistant P. falciparum strain W2. Kind of data set: In vitro blood-schizontocidal activity assay. Format: cell-based, Plasmodium falciparum. Particulars: P. falciparum W2, 48 h incubation.
[7] abbreviates: 24 h, read-out: Anti-P. carinii activity IC50, 24 h.
Where [8] appears, read: 48 h, read-out: Anti-P. carinii activity IC50, 48 h.
Setting [9] is: 72 h, read-out: Anti-P. carinii activity IC50, 72 h.

The IC50 is the concentration needed to halve the response being measured. On to `COc1cc(NC(C)CCCN)c2ncccc2c1` (stereo not shown) [Compound 1, primaquine, reference compound], for which the IC50 in the data set on P. carinii [1] (24 h, read-out: Anti-P. carinii activity IC50) amounted to 4.7 µg/mL (≈ 18.1 µM); in the data set on P. carinii [1] (48 h, read-out: Anti-P. carinii activity IC50), 2.2 µg/mL (≈ 8.48 µM); in the data set on P. carinii [1] (72 h, read-out: Anti-P. carinii activity IC50), 0.9 µg/mL (≈ 3.47 µM). In addition, the “Mean no. of oocysts per mosquito±SEM” value in data set [2] (dose 10 µmol/kg) came out at 3.5 ±1.2; in data set [2] (dose 50 µmol/kg) it was 0.2 ±0.2.

With `COc1cc(NC(C)CCCN2C(=O)CNC2(C)C)c2ncccc2c1` (stereo not shown) [Compound 4a], the IC50 is 9.1 µM in data set [3] and 23 µM with P. carinii [4]. Also, the “Anti-P. carinii activity IC50” value in the data set on P. carinii [4] is reported as 8.3 µg/mL.

Regarding `COc1cc(NC(C)CCCN2C(=O)[C@@H](C)NC2(C)C)c2ncccc2c1` (stereo partly shown) [Compound 4b], the IC50 in data set [3] was more than 50 µM; in the data set on P. carinii [4], 226 µM. Moreover, the “Activity against blood stage forms IC50” value in data set [3] (ref [28]) was “complete loss of activity”. The “Anti-P. carinii activity IC50” value with P. carinii [4] is recorded as 83.7 µg/mL.

Turning to `COc1cc(NC(C)CCCN2C(=O)CN(C(=O)CN)C2(C)C)c2ncccc2c1` (stereo not shown) [Compound 5a], the values for the IC50 in the data set with P. carinii [1] (setting [7]), in the data set with P. carinii [1] (setting [8]) and in the data set on P. carinii [1] (setting [9]) were 18.1 µg/mL (≈ 43.8 µM), 15.5 µg/mL (≈ 37.5 µM) and 11.6 µg/mL (≈ 28.1 µM), respectively. Besides, the “Cytotoxicity (A549 cells) IC50 at 72 h” value in data set [5] was “no toxicity”.

Regarding `COc1cc(NC(C)CCCN2C(=O)CN(C(=O)[C@@H](C)N)C2(C)C)c2ncccc2c1` (stereo partly shown) [Compound 5b], the IC50 with P. carinii [1] (setting [7]) worked out at 16.9 µg/mL (≈ 39.5 µM); in the data set on P. carinii [1] (setting [8]), 8 µg/mL (≈ 18.7 µM); with P. carinii [1] (setting [9]), 3.6 µg/mL (≈ 8.42 µM). In addition, in data set [2] (dose 50 µmol/kg), the “Mean no. of oocysts per mosquito±SEM” value was found to be 1.3 ±0.3.

In the case of `COc1cc(NC(C)CCCN2C(=O)CN(C(=O)[C@H](N)C(C)C)C2(C)C)c2ncccc2c1` (stereo partly shown) [Compound 5c], the IC50 with P. carinii [1] (setting [7]) was 24.7 µg/mL (≈ 54.2 µM); in the data set on P. carinii [1] (setting [8]), 9.2 µg/mL (≈ 20.2 µM); in the data set on P. carinii [1] (setting [9]), 6.2 µg/mL (≈ 13.6 µM).

With `COc1cc(NC(C)CCCN2C(=O)CN(C(=O)[C@H](N)CC(C)C)C2(C)C)c2ncccc2c1` (stereo partly shown) [Compound 5d], the IC50 came out at 14.6 µg/mL (≈ 31.1 µM) in the data set on P. carinii [1] (setting [7]), 8.4 µg/mL (≈ 17.9 µM) in the data set on P. carinii [1] (setting [8]) and 5.1 µg/mL (≈ 10.9 µM) in the data set with P. carinii [1] (setting [9]).

Take `CC[C@H](C)[C@@H](N)C(=O)N1CC(=O)N(CCCC(C)Nc2cc(OC)cc3cccnc23)C1(C)C` (stereo partly shown) [Compound 5e, 1-isoleucyl-3-(4-(6-methoxyquinolin-8-ylamino)pentyl)-2,2-dimethylimidazolidin-4-one]: the IC50 was 12.9 µg/mL (≈ 27.5 µM) in the data set on P. carinii [1] (setting [7]), 7.5 µg/mL (≈ 16 µM) with P. carinii [1] (setting [8]) and 4.6 µg/mL (≈ 9.79 µM) with P. carinii [1] (setting [9]). In addition, the “Mean no. of oocysts per mosquito±SEM” value in data set [2] (dose 10 µmol/kg) stood at 4.9 ±0.6; in data set [2] (dose 50 µmol/kg) it was 1.5 ±0.5.

In the case of `COc1cc(NC(C)CCCN2C(=O)CN(C(=O)[C@H](N)CCSC)C2(C)C)c2ncccc2c1` (stereo partly shown) [Compound 5f], the IC50 in the data set on P. carinii [1] (setting [7]) was 11.6 µg/mL (≈ 23.8 µM); in the data set with P. carinii [1] (setting [8]) it was 6.4 µg/mL (≈ 13.1 µM); in the data set with P. carinii [1] (setting [9]) it was 3.4 µg/mL (≈ 6.97 µM). Further, the “Mean no. of oocysts per mosquito±SEM” value in data set [2] (dose 10 µmol/kg) turned out to be 1.2 ±0.4; in data set [2] (dose 50 µmol/kg), 3.8 ±1.4.

Turning to `COc1cc(NC(C)CCCN2C(=O)CN(C(=O)[C@H](N)Cc3ccccc3)C2(C)C)c2ncccc2c1` (stereo partly shown) [Compound 5g], the IC50 in the data set on P. carinii [1] (setting [7]) came to 12.1 µg/mL (≈ 24 µM); in the data set on P. carinii [1] (setting [8]), 9.3 µg/mL (≈ 18.5 µM); in the data set with P. carinii [1] (setting [9]), 5.1 µg/mL (≈ 10.1 µM). Further, the “Mean no. of oocysts per mosquito±SEM” value in data set [2] (dose 10 µmol/kg) was 3.7 ±1.2; in data set [2] (dose 50 µmol/kg) it was 2.2 ±0.8.

`COc1cc(NC(C)CCCN2C(=O)[C@@H](C)N(C(=O)CN)C2(C)C)c2ncccc2c1` (stereo partly shown) [Compound 5h]: the “Anti-P. carinii activity (activity scale)” value with P. carinii [1] (24 h) is given as “Inactive”. The IC50 was 32.2 µg/mL (≈ 75.3 µM) in the data set with P. carinii [1] (setting [8]) and 22.3 µg/mL (≈ 52.2 µM) with P. carinii [1] (setting [9]). For the same compound, the “Cytotoxicity (A549 cells) IC50 at 72 h” value in data set [5] is reported as “no toxicity”. In addition, the “Mean no. of oocysts per mosquito±SEM” value turned out to be 3.3 ±1.1 in data set [2] (dose 10 µmol/kg) and 1.8 ±0.5 in data set [2] (dose 50 µmol/kg).

As to `COc1cc(NC(C)CCCN2C(=O)CN(C(C)=O)C2(C)C)c2ncccc2c1` (stereo not shown) [Compound 6], the “Activity against blood stage forms IC50” value in data set [6] is recorded as “complete loss of activity; also recorded: devoid of blood-schizontocidal activity”. Also, the “Anti-P. carinii activity (activity scale)” value with P. carinii [1] (24 h) is listed as “Inactive”. For the same compound, the IC50 in the data set with P. carinii [1] (setting [8]) is 40.5 µg/mL (≈ 102 µM); in the data set with P. carinii [1] (setting [9]) it was 14.6 µg/mL (≈ 36.6 µM).

Regarding `COc1cc(N(C(C)=O)C(C)CCCN2C(=O)CN(C(C)=O)C2(C)C)c2ncccc2c1` (stereo not shown) [Compound 7], the “Activity against blood stage forms IC50” value in data set [6] is on record as “devoid of blood-schizontocidal activity”. For the same compound, the “Anti-P. carinii activity (activity scale)” value in the data set on P. carinii [1] (24 h), in the data set on P. carinii [1] (48 h) and in the data set on P. carinii [1] (72 h) was “Inactive” each time.
